The record followed here is US10196390B2, “TYK2 inhibitors and uses thereof” (Nimbus Lakshmi, Inc., priority 2014, dated 2019).

By Ki is commonly meant the equilibrium dissociation constant of an inhibitor or competing ligand from its target. In general, EC50 refers to the concentration at which the effect is half-maximal.

Where two headings read alike, the source gives them in different places. Some results are limits rather than exact numbers.

One assay addresses TYK2 (Homo sapiens (Human), UniProt P29597). The assay is described as follows: Tyk2 activity inhibition assay (radioactive kinase assay / Caliper assay). The class given is biochemical. The method, boiled down: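 Radiometric format: TYK2 with peptide substrate (20 μM) and 33P-ATP at 10 μM in HEPES pH 7.5, 1% DMSO, 120 min at room temp, P81 paper capture. Caliper mobility-shift format: TYK2 9.75 nM, peptide 30 at 3 uM, ATP 16 uM (also 1 mM), 25 min at 28° C.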

The test system of another assay is JAK2-pSTAT5. The experiment in a line: GM-CSF induced pSTAT5 in human PBMC. The class given is cell-based. The conditions noted are these: read-out: JAK2-pSTAT5 EC50. How it is done:
Human PBMC are isolated from buffy coat and are stored frozen for assays as needed. […] 15 μl of compound or DMSO is added to the well at the desired concentrations and incubated at 1 hr at 37 C. 15 μl of stimulus (final concentration of 1.7 ng/mL IL-12) is added for 30 minutes prior to pSTAT4 and total STAT4 analysis using cell lysates prepared and analyzed by MSD reagents as per manufacturer protocol. The final DMSO concentration of compound in the assay is 0.1%.
Cells are prepared for analysis as in the above procedure and 15 μl of GM-CSF (final concentration 5 ng/mL) is added for 20 minutes prior to pSTAT5 and total STAT5 analysis using cell lysates prepared and analyzed by MSD reagents as per manufacturer protocol. The final DMSO concentration of compound in the assay is 0.1%.

The target of another assay is JAK2 (Homo sapiens (Human), UniProt O60674). The assay is described as follows: JAK2 activity inhibition assay (radioactive kinase assay / Caliper assay). The class given is biochemical. In outline: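 Mobility-shift (Caliper) read-out of phosphorylated peptide substrate. Compound diluted in 25 mM HEPES pH 7.5, 0.01% Brij-35, 0.01% Triton, 0.5 mM EGTA; enzyme added, then peptide plus ATP in 10 mM MgCl2. Incubated 25 min at 28° C, stopped with EDTA buffer.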
JAK2, sequence (O60674 whole entry): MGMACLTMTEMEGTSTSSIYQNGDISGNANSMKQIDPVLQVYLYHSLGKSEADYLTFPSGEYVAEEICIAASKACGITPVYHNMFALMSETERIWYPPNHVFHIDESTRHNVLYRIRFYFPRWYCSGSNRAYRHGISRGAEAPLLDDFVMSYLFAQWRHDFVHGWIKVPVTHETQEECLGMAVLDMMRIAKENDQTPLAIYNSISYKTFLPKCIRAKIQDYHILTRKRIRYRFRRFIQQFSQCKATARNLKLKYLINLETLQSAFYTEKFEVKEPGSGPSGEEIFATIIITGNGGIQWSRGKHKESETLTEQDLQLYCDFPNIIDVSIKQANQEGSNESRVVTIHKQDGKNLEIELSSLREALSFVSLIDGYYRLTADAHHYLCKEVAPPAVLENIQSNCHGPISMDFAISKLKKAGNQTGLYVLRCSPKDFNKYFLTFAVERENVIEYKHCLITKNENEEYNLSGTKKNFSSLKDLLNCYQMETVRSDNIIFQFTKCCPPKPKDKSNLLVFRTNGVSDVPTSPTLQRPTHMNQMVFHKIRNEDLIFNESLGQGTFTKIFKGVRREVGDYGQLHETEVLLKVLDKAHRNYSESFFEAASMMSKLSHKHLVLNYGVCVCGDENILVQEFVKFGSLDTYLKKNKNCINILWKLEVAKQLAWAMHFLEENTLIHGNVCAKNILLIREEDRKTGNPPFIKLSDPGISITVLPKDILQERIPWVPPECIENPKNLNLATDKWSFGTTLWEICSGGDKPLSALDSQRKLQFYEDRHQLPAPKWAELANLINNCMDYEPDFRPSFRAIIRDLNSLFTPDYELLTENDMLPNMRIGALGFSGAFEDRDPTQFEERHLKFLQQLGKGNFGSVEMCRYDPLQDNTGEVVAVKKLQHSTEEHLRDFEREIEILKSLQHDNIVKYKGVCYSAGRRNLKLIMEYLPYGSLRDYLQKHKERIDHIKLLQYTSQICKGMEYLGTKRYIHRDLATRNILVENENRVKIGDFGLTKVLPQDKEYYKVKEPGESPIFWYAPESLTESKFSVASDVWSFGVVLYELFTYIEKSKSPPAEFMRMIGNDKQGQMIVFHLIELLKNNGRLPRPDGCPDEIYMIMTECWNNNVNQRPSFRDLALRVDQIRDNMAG

A further assay has as its system Tyk2-pSTAT4. The experiment in a line: IL-12 induced pSTAT4 in human PBMC. To be noted: read-out: Tyk2-pSTAT4 EC50. The assay is classed as cell-based. As to the method: Human PBMC are isolated from buffy coat and are stored frozen for assays as needed. Cells for assay are thawed and resuspended in complete media containing serum, then cells are diluted to 1.67 E6 cells/ml so that 120 μl per well is 200,000 cells. 15 μl of compound or DMSO is added to the well at the desired concentrations and incubated at 1 hr at 37 C. 15 μl of stimulus (final concentration of 1.7 ng/mL IL-12) is added for 30 minutes prior to pSTAT4 and total STAT4 analysis using cell lysates prepared and analyzed by MSD reagents as per manufacturer protocol. The final DMSO concentration of compound in the assay is 0.1%.

Setting [1] is: GM-CSF induced pSTAT5, human PBMC.
Setting [2] is: IL-12 induced pSTAT4, human PBMC.

TYK2, sequence (P29597 whole entry): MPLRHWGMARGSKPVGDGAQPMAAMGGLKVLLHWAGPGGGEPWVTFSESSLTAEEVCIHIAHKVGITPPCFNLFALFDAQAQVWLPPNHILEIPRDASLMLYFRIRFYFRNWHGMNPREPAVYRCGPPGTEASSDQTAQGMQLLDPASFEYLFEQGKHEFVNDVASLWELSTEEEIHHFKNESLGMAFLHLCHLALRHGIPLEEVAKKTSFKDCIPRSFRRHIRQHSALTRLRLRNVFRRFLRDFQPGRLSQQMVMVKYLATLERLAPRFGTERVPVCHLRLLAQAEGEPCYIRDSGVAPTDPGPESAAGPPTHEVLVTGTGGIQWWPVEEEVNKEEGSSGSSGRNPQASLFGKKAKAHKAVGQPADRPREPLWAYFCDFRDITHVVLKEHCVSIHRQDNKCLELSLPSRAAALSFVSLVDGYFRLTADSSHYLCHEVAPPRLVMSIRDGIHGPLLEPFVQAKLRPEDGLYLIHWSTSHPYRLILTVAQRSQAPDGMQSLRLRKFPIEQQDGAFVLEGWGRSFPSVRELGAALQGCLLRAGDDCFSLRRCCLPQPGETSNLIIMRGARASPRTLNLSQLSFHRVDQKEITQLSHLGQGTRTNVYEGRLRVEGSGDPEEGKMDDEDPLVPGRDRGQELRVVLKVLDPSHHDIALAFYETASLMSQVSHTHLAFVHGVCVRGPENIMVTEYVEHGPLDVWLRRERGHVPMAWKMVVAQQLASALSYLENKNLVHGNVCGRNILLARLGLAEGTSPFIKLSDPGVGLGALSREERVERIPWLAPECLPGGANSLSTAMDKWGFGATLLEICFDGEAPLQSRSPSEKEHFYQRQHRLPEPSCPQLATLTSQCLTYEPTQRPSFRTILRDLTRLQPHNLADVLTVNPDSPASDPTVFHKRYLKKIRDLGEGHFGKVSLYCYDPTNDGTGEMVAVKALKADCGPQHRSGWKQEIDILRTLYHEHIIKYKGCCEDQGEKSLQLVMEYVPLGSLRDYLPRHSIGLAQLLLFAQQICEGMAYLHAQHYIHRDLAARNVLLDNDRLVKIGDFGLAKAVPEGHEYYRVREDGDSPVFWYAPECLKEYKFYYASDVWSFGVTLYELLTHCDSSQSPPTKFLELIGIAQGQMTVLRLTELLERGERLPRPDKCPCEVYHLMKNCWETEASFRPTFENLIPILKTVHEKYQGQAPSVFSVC

Take `O=C1NCc2nc(-c3c(F)cccc3F)nc(Nc3ccc(CC(=O)N4CCC[C@H]4CO)cc3)c21` [Compound I-16, (S)-2-(2,6-difluorophenyl)-4-((4-(2-(2-(hydroxyl-methyl)pyrrolidin-1-yl)-2-oxoethyl)phenyl)amino)-6,7-dihydro-5H-pyrrolo[3,4-d]pyrimidin-5]: the Ki is under 10 nM on TYK2 and 100 to 1000 nM at JAK2 (read-out: JAK2 Ki). The EC50 was over 20 µM with JAK2-pSTAT5 (setting [1]) and under 2000 nM in the assay on Tyk2-pSTAT4 (setting [2]).
Consider `CCNC(=O)Cc1ccc(Nc2nc(-c3ccccc3Cl)nc3c2C(=O)NC3)cc1` [Compound I-20, 2-(4-((2-(2-chlorophenyl)-5-oxo-6,7-dihydro-5H-pyrrolo[3,4-d]pyrimidin-4-yl)amino)phenyl)-N-ethylacetamide], for which the results for the Ki on TYK2 and on JAK2 (read-out: JAK2 Ki) were 10 to 100 nM and 100 to 1000 nM, respectively. Besides, the EC50 in the assay with JAK2-pSTAT5 (Homo sapiens, PBMC) was over 20 µM; in the assay on Tyk2-pSTAT4 (setting [2]), under 2000 nM.
With `C[C@H]1COCCN1C(=O)Cc1ccc(Nc2nc(-c3c(F)cccc3F)nc3c2C(=O)NC3)cc1` [Compound I-64, (S)-2-(2,6-difluorophenyl)-4-((4-(2-(3-methylmorpholino)-2-oxoethyl)phenyl)amino)-6,7-dihydro-5H-pyrrolo[3,4-d]pyrimidin-5-one], the Ki on TYK2 was under 10 nM; on JAK2 (read-out: JAK2 Ki), 100 to 1000 nM. Besides, the results for the EC50 in the assay with JAK2-pSTAT5 (setting [1]) and in the assay with Tyk2-pSTAT4 (setting [2]) were over 20 µM and under 2000 nM, respectively.
Regarding `O=C(Cc1ccc(Nc2nc(-c3c(F)cccc3F)nc3c2C(=O)NC3)cc1)NC1CCOCC1` [Compound I-65, 2-(4-((2-(2,6-difluorophenyl)-5-oxo-6,7-dihydro-5H-pyrrolo[3,4-d]pyrimidin-4-yl)amino)phenyl)-N-(tetrahydro-2H-pyran-4-yl)acetamide], the results for the Ki on TYK2 and at JAK2 (read-out: JAK2 Ki) were under 10 nM and 100 to 1000 nM, respectively. Besides, the results for the EC50 with JAK2-pSTAT5 (setting [1]) and in the assay on Tyk2-pSTAT4 (setting [2]) were over 20 µM and under 2000 nM, respectively.
Take `O=C1NCc2nc(-c3c(F)cccc3F)nc(Nc3ccc(CC(=O)N4CCOCC4)cc3)c21` [Compound I-66, 2-(2,6-difluorophenyl)-4-((4-(2-morpholino-2-oxoethyl)phenyl)amino)-6,7-dihydro-5H-pyrrolo[3,4-d]pyrimidin-5-one]: the values for the Ki at TYK2 and on JAK2 (read-out: JAK2 Ki) were under 10 nM and 100 to 1000 nM, respectively. The EC50 was over 20 µM in the assay on JAK2-pSTAT5 (setting [1]) and under 2000 nM with Tyk2-pSTAT4 (setting [2]).
`CN1CCN(C(=O)Cc2ccc(Nc3nc(-c4c(F)cccc4F)nc4c3C(=O)NC4)cc2)CC1` [Compound I-67, 2-(2,6-difluorophenyl)-4-((4-(2-(4-methylpiperazin-1-yl)-2-oxoethyl)phenyl)amino)-6,7-dihydro-5H-pyrrolo[3,4-d]pyrimidin-5-one]: the Ki is under 10 nM at TYK2 and 10 to 100 nM at JAK2. Besides, the results for the EC50 with JAK2-pSTAT5 (setting [1]) and with Tyk2-pSTAT4 (setting [2]) were over 20 µM and under 2000 nM, respectively.
Consider `O=C1NCc2nc(-c3c(F)cccc3F)nc(Nc3ccc(CC(=O)N4CCN(CC(F)F)CC4)cc3)c21` [Compound I-78, 4-((4-(2-(4-(2,2-difluoroethyl)piperazin-1-yl)-2-oxoethyl)phenyl)amino)-2-(2,6-difluorophenyl)-6,7-dihydro-5H-pyrrolo[3,4-d]pyrimidin-5-one], for which the values for the Ki on TYK2 and at JAK2 were under 10 nM and 10 to 100 nM, respectively. Also, the EC50 with JAK2-pSTAT5 (Homo sapiens, PBMC) was over 20 µM; with Tyk2-pSTAT4 (Homo sapiens, PBMC), under 2000 nM.
For `O=C1NCc2nc(-c3c(F)cccc3F)nc(Nc3ccc([C@H]4CCNC4=O)cc3)c21` [Compound I-86, (R)-2-(2,6-difluorophenyl)-4-((4-(2-oxopyrrolidin-3-yl)phenyl)amino)-6,7-dihydro-5H-pyrrolo[3,4-d]pyrimidin-5-one], the inhibition constant (Ki) at TYK2 is under 10 nM; at JAK2 (read-out: JAK2 Ki), 10 to 100 nM. In addition, the EC50 in the assay with JAK2-pSTAT5 (setting [1]) is over 20 µM; in the assay with Tyk2-pSTAT4 (setting [2]), under 2000 nM.
In the case of `O=C1NCc2nc(-c3c(F)cccc3F)nc(Nc3ccc([C@@H]4CCNC4=O)cc3)c21` [Compound I-87, (S)-2-(2,6-difluorophenyl)-4-((4-(2-oxopyrrolidin-3-yl)phenyl)amino)-6,7-dihydro-5H-pyrrolo[3,4-d]pyrimidin-5-], the results for the Ki on TYK2 and at JAK2 (read-out: JAK2 Ki) were under 10 nM and 10 to 100 nM, respectively. Besides, the EC50 in the assay on JAK2-pSTAT5 (setting [1]) is over 20 µM; in the assay on Tyk2-pSTAT4 (setting [2]) it was under 2000 nM.
As to `CCNC(=O)Cc1ccc(Nc2cc(-c3c(F)cccc3F)nc3c2C(=O)NC3)nc1` [Compound I-88, 2-(6-((2-(2,6-difluorophenyl)-5-oxo-6,7-dihydro-5H-pyrrolo[3,4-b]pyridin-4-yl)amino)pyridin-3-yl)-N-ethylacetamide], the Ki lay in the range of 10 to 100 nM on TYK2 and 100 to 1000 nM on JAK2 (read-out: JAK2 Ki). Also, the EC50 was under 2 µM with JAK2-pSTAT5 (Homo sapiens, PBMC) and under 2000 nM in the assay with Tyk2-pSTAT4 (Homo sapiens, PBMC).
As for `CC(C)(C(=O)O)c1ccc(Nc2nc(-c3c(F)cccc3F)nc3c2C(=O)NC3)cc1` [Compound I-109, 2-(4-((2-(2,6-difluorophenyl)-5-oxo-6,7-dihydro-5H-pyrrolo[3,4-d]pyrimidin-4-yl)amino)phenyl)-2-methylpropanoic Acid], the Ki is under 10 nM at TYK2 and 100 to 1000 nM at JAK2 (read-out: JAK2 Ki). Further, the EC50 was over 20 µM in the assay with JAK2-pSTAT5 (setting [1]) and 2000 to 20000 nM in the assay with Tyk2-pSTAT4 (Homo sapiens, PBMC).
On to `COc1ccc(Nc2nc(-c3c(F)cccc3F)nc3c2C(=O)NC3)cc1` [Compound I-110, 2-(2,6-difluorophenyl)-4-((4-methoxyphenyl)amino)-6,7-dihydro-5H-pyrrolo[3,4-d]pyrimidin-5-one], for which the Ki was under 10 nM on TYK2 and over 1000 nM on JAK2 (read-out: JAK2 Ki). Moreover, the EC50 with JAK2-pSTAT5 (Homo sapiens, PBMC) is over 20 µM; in the assay with Tyk2-pSTAT4 (Homo sapiens, PBMC) it was under 2000 nM.
For `O=C1NCc2nc(-c3c(F)cccc3Cl)nc(Nc3ccc([C@H]4CCNC4=O)cc3)c21` [Compound I-114, (R)-2-(2-chloro-6-fluorophenyl)-4-((4-(2-oxopyrrolidin-3-yl)phenyl)amino)-6,7-dihydro-5H-pyrrolo[3,4-d]pyrimidin-5-one], the figures for the Ki on TYK2 and at JAK2 (read-out: JAK2 Ki) were under 10 nM and 100 to 1000 nM, respectively. The EC50 in the assay on JAK2-pSTAT5 (setting [1]) is 2 to 20 µM; in the assay on Tyk2-pSTAT4 (setting [2]), under 2000 nM.
In the same order, the values of `O=C1NCc2nc(-c3c(F)cccc3Cl)nc(Nc3ccc([C@@H]4CCNC4=O)cc3)c21` [Compound I-115, (S)-2-(2-chloro-6-fluorophenyl)-4-((4-(2-oxopyrrolidin-3-yl)phenyl)amino)-6,7-dihydro-5H-pyrrolo[3,4-d]pyrimidin-5-one] are 10 to 100 nM, 100 to 1000 nM, 2 to 20 µM and under 2000 nM.
Regarding `O=C1NCc2nc(-c3c(F)cccc3F)nc(Nc3ccc(C4CCN(C5CCC5)C4=O)cc3)c21` (centres unmarked) [Compound I-117, 4-((4-(1-cyclobutyl-2-oxopyrrolidin-3-yl)phenyl)amino)-2-(2,6-difluorophenyl)-6,7-dihydro-5H-pyrrolo[3,4-d]pyrimidin-5-one], the Ki was under 10 nM on TYK2 and 100 to 1000 nM on JAK2 (read-out: JAK2 Ki). Further, the EC50 in the assay on JAK2-pSTAT5 (Homo sapiens, PBMC) is over 20 µM; in the assay on Tyk2-pSTAT4 (Homo sapiens, PBMC) it was under 2000 nM.
As for `O=C1NCc2nc(-c3c(F)cccc3F)nc(Nc3ccc(Cn4ccnn4)cc3)c21` [Compound I-128, 4-((4-((1H-1,2,3-triazol-1-yl)methyl)phenyl)amino)-2-(2,6-difluorophenyl)-6,7-dihydro-5H-pyrrolo[3,4-d]pyrimidin-5-one], the values for the Ki at TYK2 and at JAK2 (read-out: JAK2 Ki) were under 10 nM and 100 to 1000 nM, respectively. Also, the concentration for a half-maximal effect (EC50) in the assay on JAK2-pSTAT5 (Homo sapiens, PBMC) is over 20 µM; in the assay with Tyk2-pSTAT4 (Homo sapiens, PBMC), under 2000 nM.
As for `O=C1NCc2nc(-c3c(F)cccc3F)cc(Nc3ccc(NCCN4CCC(F)(F)CC4)cn3)c21` [Compound I-135, 2-(2,6-difluorophenyl)-4-((5-((2-(4,4-difluoropiperidin-1-yl)ethyl)amino)pyridin-2-yl)amino)-6,7-dihydro-5H-pyrrolo[3,4-b]pyridin-5-one], the Ki was under 10 nM on TYK2 and 10 to 100 nM on JAK2 (read-out: JAK2 Ki). In addition, the EC50 is under 2 µM in the assay on JAK2-pSTAT5 (setting [1]) and under 2000 nM in the assay with Tyk2-pSTAT4 (setting [2]).
Take `CC1(C)OCCN(c2ccc(Nc3cc(-c4c(F)cccc4F)nc4c3C(=O)NC4)nc2)C1=O` [Compound I-273, 4-(6-((2-(2,6-difluorophenyl)-5-oxo-6,7-dihydro-5H-pyrrolo[3,4-b]pyridin-4-yl)amino)pyridin-3-yl)-2,2-dimethylmorpholin-3-one]: the EC50 in the assay with JAK2-pSTAT5 (setting [1]) was under 2 µM; with Tyk2-pSTAT4 (setting [2]), under 2000 nM. For the same molecule, at JAK2 (read-out: JAK2 Ki), the Ki fell in the range of 10 to 100 nM.
